From PubChem BioAssay AID330 (DTP/NCI, 2004)
Values joined by “and” are separate entries in the source; they are usually repeats but may differ in a detail not shown here. Equal entries are not always repeated. Toxic doses and inconclusive results are not listed.

System: P388 leukemia ip, CD2F1 mice, survival T/C
Assay: NCI In Vivo Anticancer Drug Screen. Data for tumor model P388 Leukemia (intraperitoneal) in CD2F1 (CDF1) mice
Settings: endpoint: median survival time, higher = longer survival
How it was run: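 Mice carrying the transplanted tumor received test compound or vehicle. Survival was recorded in each group, and the value is the treated-group measurement divided by that of the vehicle-treated control group.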

[1] = dose: 25.0 mg/kg/injection, schedule: Q01DX009 (ip), vehicle: saline
[2] = dose: 50.0 mg/kg/injection, schedule: Q01DX009 (ip), vehicle: saline
[3] = dose: 50.0 mg/kg/injection, schedule: Q01DX009 (ip), vehicle: suspension in saline
[4] = dose: 100.0 mg/kg/injection, schedule: Q01DX009 (ip), vehicle: suspension in saline
[5] = dose: 200.0 mg/kg/injection, schedule: Q01DX009 (ip), vehicle: suspension in saline
[6] = dose: 12.5 mg/kg/injection, schedule: Q01DX009 (ip), vehicle: saline
[7] = dose: 50.0 mg/kg/injection, schedule: Q01DX009 (ip), vehicle: saline with Tween-80
[8] = dose: 100.0 mg/kg/injection, schedule: Q01DX009 (ip), vehicle: saline with Tween-80
[9] = dose: 200.0 mg/kg/injection, schedule: Q01DX009 (ip), vehicle: saline with Tween-80
[10] = dose: 400.0 mg/kg/injection, schedule: Q01DX009 (ip), vehicle: saline with Tween-80
[11] = dose: 50.0 mg/kg/injection, schedule: Q01DX005 (ip), vehicle: Klucel (hydroxypropylcellulose) (HPC)
[12] = dose: 100.0 mg/kg/injection, schedule: Q01DX005 (ip), vehicle: Klucel (hydroxypropylcellulose) (HPC)
[13] = dose: 200.0 mg/kg/injection, schedule: Q01DX005 (ip), vehicle: Klucel (hydroxypropylcellulose) (HPC)
[14] = dose: 30.0 mg/kg/injection, schedule: Q01DX005 (ip), vehicle: Klucel (hydroxypropylcellulose) (HPC)
[15] = dose: 60.0 mg/kg/injection, schedule: Q01DX005 (ip), vehicle: Klucel (hydroxypropylcellulose) (HPC)
[16] = dose: 50.0 mg/kg/injection, schedule: Q01DX009 (ip), vehicle: Klucel (hydroxypropylcellulose) (HPC)
[17] = dose: 100.0 mg/kg/injection, schedule: Q01DX009 (ip), vehicle: Klucel (hydroxypropylcellulose) (HPC)
[18] = dose: 12.5 mg/kg/injection, schedule: Q01DX009 (ip), vehicle: saline with Tween-80
[19] = dose: 25.0 mg/kg/injection, schedule: Q01DX009 (ip), vehicle: saline with Tween-80
[20] = dose: 50.0 mg/kg/injection, schedule: Q01DX005 (ip), vehicle: saline
[21] = dose: 100.0 mg/kg/injection, schedule: Q01DX005 (ip), vehicle: saline
[22] = dose: 200.0 mg/kg/injection, schedule: Q01DX005 (ip), vehicle: saline

SMILES: COC(=O)Cc1cccc2c(=O)cc(-c3cccs3)oc12
- T/C [1]: 90 % of control
- T/C (dose: 25.0 mg/kg/injection, schedule: Q01DX009 (ip), vehicle: suspension in saline): 97 % of control
- T/C [2]: 105 % of control and 92 % of control
- T/C [3]: 94 % of control
- T/C (dose: 100.0 mg/kg/injection, schedule: Q01DX009 (ip), vehicle: saline): 117 % of control and 97 % of control
- T/C [4]: 94 % of control
- T/C (dose: 200.0 mg/kg/injection, schedule: Q01DX009 (ip), vehicle: saline): 108 % of control
- T/C [5]: 95 % of control

SMILES: CC(CN)c1ccccc1 (stereo not given)
- T/C [6]: 111 % of control
- T/C [1]: 101 % of control
- T/C [2]: 101 % of control and 103 % of control

SMILES: N#CC12c3ccccc3C(c3ccccc31)C1C(=O)C=CC(=O)C12 (stereo not given)
- T/C [6]: 111 % of control
- T/C [1]: 106 % of control
- T/C [2]: 92 % of control and 96 % of control

SMILES: O=C1CSC(=S)N1c1ccc(Cl)c(C(F)(F)F)c1
- T/C [3]: 108 % of control
- T/C [4]: 101 % of control
- T/C [5]: 104 % of control

SMILES: O=C(NNC(=O)c1ccc(Cl)cc1Cl)c1ccco1
- T/C [6]: 100 % of control
- T/C [1]: 102 % of control and 89 % of control
- T/C [7]: 100 % of control
- T/C [2]: 102 % of control and 97 % of control

SMILES: C=CCNC(=S)NCC
- T/C [8]: 100 % of control
- T/C [9]: 104 % of control
- T/C [10]: 109 % of control

SMILES: COc1ccc(OC)c2c1CCC1(C2)NC(=O)NC1=O (stereo not given)
- T/C [11]: 111 % of control
- T/C [12]: 100 % of control
- T/C [13]: 95 % of control

SMILES: CC1COCCOC(=O)COCC(=O)OCCOCC(C)O1 (stereo not given)
- T/C (dose: 100.0 mg/kg/injection, schedule: Q04DX003 (ip), vehicle: Klucel (hydroxypropylcellulose) (HPC)): 107 % of control
- T/C (dose: 200.0 mg/kg/injection, schedule: Q04DX003 (ip), vehicle: Klucel (hydroxypropylcellulose) (HPC)): 103 % of control
- T/C (dose: 400.0 mg/kg/injection, schedule: Q04DX003 (ip), vehicle: Klucel (hydroxypropylcellulose) (HPC)): 93 % of control

SMILES: Nc1ccc(C(=O)Nc2ccccc2N)cc1
- T/C (dose: 100.0 mg/kg/injection, schedule: Q04DX003 (ip), vehicle: saline with Tween-80): 100 % of control
- T/C (dose: 200.0 mg/kg/injection, schedule: Q04DX003 (ip), vehicle: saline with Tween-80): 99 % of control
- T/C (dose: 400.0 mg/kg/injection, schedule: Q04DX003 (ip), vehicle: saline with Tween-80): 108 % of control

SMILES: CN(C)CCS(=O)(=O)O
- T/C (dose: 1.56 mg/kg/injection, schedule: Q04DX003 (ip), vehicle: saline): 100 % of control
- T/C (dose: 3.12 mg/kg/injection, schedule: Q04DX003 (ip), vehicle: saline): 100 % of control
- T/C (dose: 6.25 mg/kg/injection, schedule: Q04DX003 (ip), vehicle: saline): 88 % of control
- T/C (dose: 12.5 mg/kg/injection, schedule: Q04DX003 (ip), vehicle: saline): 94 % of control
- T/C (dose: 50.0 mg/kg/injection, schedule: Q04DX003 (ip), vehicle: saline): 97 % of control
- T/C (dose: 100.0 mg/kg/injection, schedule: Q04DX003 (ip), vehicle: saline): 102 % of control

SMILES: C=C(C)C1CC=C(C)C(SCCN(CC)CC)C1 (stereo not given)
- T/C [11]: 104 % of control
- T/C [12]: 109 % of control
- T/C [13]: 118 % of control

SMILES: CC1=C(C(=O)Nc2ccccc2C)C(c2cccc([N+](=O)[O-])c2)C(C(=O)Nc2ccccc2C)=C(C)N1
- T/C (dose: 15.0 mg/kg/injection, schedule: Q01DX005 (ip), vehicle: Klucel (hydroxypropylcellulose) (HPC)): 102 % of control
- T/C [14]: 93 % of control
- T/C [15]: 88 % of control and 97 % of control

SMILES: CC1(C)OCC(C2OC(C)(C)OC2C(O)c2ccco2)O1 (stereo not given)
- T/C (dose: 12.5 mg/kg/injection, schedule: Q01DX009 (ip), vehicle: distilled water + Tween-80): 106 % of control and 100 % of control
- T/C (dose: 25.0 mg/kg/injection, schedule: Q01DX009 (ip), vehicle: distilled water + Tween-80): 115 % of control and 117 % of control
- T/C (dose: 50.0 mg/kg/injection, schedule: Q01DX009 (ip), vehicle: distilled water + Tween-80): 105 % of control and 118 % of control
- T/C (dose: 100.0 mg/kg/injection, schedule: Q01DX009 (ip), vehicle: distilled water + Tween-80): 118 % of control and 115 % of control
- T/C (dose: 200.0 mg/kg/injection, schedule: Q01DX009 (ip), vehicle: distilled water + Tween-80): 115 % of control

SMILES: CCCC12C=C(OC)C(=O)C=C1OC(c1cc(OC)c(OC)c(OC)c1)C2C (stereo not given)
- T/C (dose: 8.75 mg/kg/injection, schedule: Q01DX005 (ip), vehicle: Klucel (hydroxypropylcellulose) (HPC)): 101 % of control
- T/C (dose: 17.5 mg/kg/injection, schedule: Q01DX005 (ip), vehicle: Klucel (hydroxypropylcellulose) (HPC)): 96 % of control
- T/C (dose: 35.0 mg/kg/injection, schedule: Q01DX005 (ip), vehicle: Klucel (hydroxypropylcellulose) (HPC)): 100 % of control

SMILES: COc1ccc(C2C3C(=O)NC(=O)C2C(=O)NC3=O)cc1OC (stereo not given)
- T/C (dose: 60.0 mg/kg/injection, schedule: Q01DX005 (ip), vehicle: saline): 101 % of control
- T/C (dose: 120.0 mg/kg/injection, schedule: Q01DX005 (ip), vehicle: saline): 108 % of control
- T/C (dose: 240.0 mg/kg/injection, schedule: Q01DX005 (ip), vehicle: saline): 90 % of control

SMILES: COc1ccc(/C=C/c2nnc(N)o2)cc1
- T/C (dose: 50.0 mg/kg/injection, schedule: Q01DX005 (ip), vehicle: saline with Tween-80): 100 % of control
- T/C (dose: 100.0 mg/kg/injection, schedule: Q01DX005 (ip), vehicle: saline with Tween-80): 101 % of control
- T/C (dose: 200.0 mg/kg/injection, schedule: Q01DX005 (ip), vehicle: saline with Tween-80): 105 % of control

SMILES: O=C1c2cc(Cl)ccc2OC2CCON12 (stereo not given)
- T/C [16]: 108 % of control
- T/C [17]: 110 % of control
- T/C (dose: 200.0 mg/kg/injection, schedule: Q01DX009 (ip), vehicle: Klucel (hydroxypropylcellulose) (HPC)): 116 % of control

SMILES: CCOC(=O)c1[nH]c(=O)c2cccnc2c1O
- T/C [14]: 97 % of control
- T/C [15]: 94 % of control and 98 % of control
- T/C (dose: 120.0 mg/kg/injection, schedule: Q01DX005 (ip), vehicle: Klucel (hydroxypropylcellulose) (HPC)): 106 % of control and 96 % of control
- T/C (dose: 240.0 mg/kg/injection, schedule: Q01DX005 (ip), vehicle: Klucel (hydroxypropylcellulose) (HPC)): 113 % of control

SMILES: Cc1cnnc2ccccc12
- T/C [18]: 98 % of control
- T/C [19]: 106 % of control
- T/C [7]: 106 % of control

SMILES: CN1CCOC(N2CCOCC2)C(C)(C)C1 (stereo not given)
- T/C [20]: 92 % of control
- T/C [21]: 88 % of control
- T/C [22]: 100 % of control

SMILES: Cc1ccc(-n2c(COc3c(C)cccc3C)n[nH]c2=S)cc1
- T/C (dose: 12.5 mg/kg/injection, schedule: Q01DX009 (ip), vehicle: Klucel (hydroxypropylcellulose) (HPC)): 100 % of control
- T/C (dose: 25.0 mg/kg/injection, schedule: Q01DX009 (ip), vehicle: Klucel (hydroxypropylcellulose) (HPC)): 100 % of control
- T/C [11]: 90 % of control
- T/C [16]: 109 % of control
- T/C [13]: 89 % of control

SMILES: Cc1cc(C)[nH]c(=O)c1
- T/C [8]: 100 % of control
- T/C [9]: 100 % of control
- T/C [10]: 109 % of control

SMILES: CN(C)CCNC(c1ccccc1)C(O)c1ccccc1 (stereo not given)
- T/C [16]: 100 % of control
- T/C [17]: 101 % of control

SMILES: COc1ccccc1C1c2cc3c(cc2OC(C)(OC)C1C)OCO3 (stereo not given)
- T/C (dose: 60.0 mg/kg/injection, schedule: Q01DX005 (ip), vehicle: saline with Tween-80): 93 % of control
- T/C (dose: 120.0 mg/kg/injection, schedule: Q01DX005 (ip), vehicle: saline with Tween-80): 90 % of control
- T/C (dose: 240.0 mg/kg/injection, schedule: Q01DX005 (ip), vehicle: saline with Tween-80): 92 % of control

SMILES: NC(N)=NC(=O)c1ccccc1
- T/C [20]: 100 % of control
- T/C [21]: 100 % of control
- T/C [22]: 100 % of control

SMILES: CN1CCC/C1=C\C(=O)c1ccncc1
- T/C [20]: 96 % of control
- T/C [21]: 112 % of control
- T/C [22]: 124 % of control

SMILES: COc1cc2cc3c4ccc(OC)c(OC)c4cc[n+]3c(C)c2cc1OC (tested in a mixture with another compound)
- T/C [18]: 150 % of control
- T/C [19]: 164 % of control
- T/C [7]: 174 % of control
- T/C [8]: 209 % of control
